ChEMBL document CHEMBL1137522, “Two new phenylpiperazines with atypical antipsychotic potential” (Bioorg Med Chem Lett, 2007)
Activity calls are given as the source filed them. The rule behind the calls is not given here.

Columns and labels:
Rattus norvegicus = experiment: Induction of catalepsy in Mill Hill hooded rat at 10 mg/kg after 30-180 min; format: organism-based; parameters: dose 10 mg/kg; conditions: in vivo
[1] = target: T1, 5-hydroxytryptamine receptor 1A (Rattus norvegicus, UniProt P19327); experiment: Binding affinity at 5HT1A receptor in rat striatal membranes; format: cell membranes, Striatum, Membrane
T1 sequence (P19327 whole entry): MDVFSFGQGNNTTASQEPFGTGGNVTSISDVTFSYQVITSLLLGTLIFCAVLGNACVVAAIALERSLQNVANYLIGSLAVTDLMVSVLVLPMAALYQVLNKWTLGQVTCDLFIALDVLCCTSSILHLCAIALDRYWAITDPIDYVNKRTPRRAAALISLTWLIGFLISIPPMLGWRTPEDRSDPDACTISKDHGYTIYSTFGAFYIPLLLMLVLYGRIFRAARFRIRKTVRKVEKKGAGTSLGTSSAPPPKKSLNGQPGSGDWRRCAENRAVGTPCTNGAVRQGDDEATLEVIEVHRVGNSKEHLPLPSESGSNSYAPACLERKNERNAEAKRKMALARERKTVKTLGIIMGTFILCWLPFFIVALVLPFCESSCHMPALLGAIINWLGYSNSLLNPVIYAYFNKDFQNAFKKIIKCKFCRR

Mus musculus = organism: Mus musculus; experiment: Antagonist effect on amphetamine-induced hyperlocomotion in CPU mouse by open field test; format: functional, organism-based
[2] = target: 5-hydroxytryptamine receptor 2A (Rattus norvegicus, UniProt P14842); experiment: Binding affinity at 5HT2A receptor in rat striatal membranes; format: cell membranes, Striatum, Membrane
[3] = Binding affinity at adrenergic alpha 1 receptor in rat striatal membranes; format: cell membranes, Striatum, Membrane
D(2) dopamine receptor = D(2) dopamine receptor (Rattus norvegicus, UniProt P61169); experiment: Binding affinity at dopamine D2 receptor in rat striatal membranes; format: cell membranes, Striatum, Membrane
Chain of D(2) dopamine receptor (P61169 whole entry): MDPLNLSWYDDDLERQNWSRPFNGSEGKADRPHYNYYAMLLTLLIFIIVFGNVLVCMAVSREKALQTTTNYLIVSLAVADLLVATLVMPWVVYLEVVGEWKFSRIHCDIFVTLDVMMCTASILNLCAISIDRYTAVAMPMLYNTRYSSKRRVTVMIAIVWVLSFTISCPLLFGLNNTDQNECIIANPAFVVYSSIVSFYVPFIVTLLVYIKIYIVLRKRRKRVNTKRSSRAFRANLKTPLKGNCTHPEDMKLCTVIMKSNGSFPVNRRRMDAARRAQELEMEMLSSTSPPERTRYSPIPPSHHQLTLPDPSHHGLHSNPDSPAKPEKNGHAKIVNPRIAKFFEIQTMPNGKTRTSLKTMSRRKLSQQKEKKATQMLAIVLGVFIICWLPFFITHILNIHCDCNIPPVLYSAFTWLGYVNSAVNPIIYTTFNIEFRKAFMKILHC

Chain of 5-hydroxytryptamine receptor 2A (P14842 whole entry): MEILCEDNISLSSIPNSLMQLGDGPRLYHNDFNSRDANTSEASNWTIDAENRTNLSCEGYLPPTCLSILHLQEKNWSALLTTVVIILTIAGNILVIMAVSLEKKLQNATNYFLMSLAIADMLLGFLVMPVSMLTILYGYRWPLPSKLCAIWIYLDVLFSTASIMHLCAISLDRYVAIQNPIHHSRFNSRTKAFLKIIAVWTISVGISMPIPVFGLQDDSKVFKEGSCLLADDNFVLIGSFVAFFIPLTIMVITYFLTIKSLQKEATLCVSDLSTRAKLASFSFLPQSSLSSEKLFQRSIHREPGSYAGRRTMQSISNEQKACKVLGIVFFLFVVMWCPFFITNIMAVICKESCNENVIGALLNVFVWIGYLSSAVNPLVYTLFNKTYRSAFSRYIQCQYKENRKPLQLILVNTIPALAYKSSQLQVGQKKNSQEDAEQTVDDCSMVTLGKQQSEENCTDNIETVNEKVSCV

Structure (SMILES) | Ki [1] | Ki [2] | Log Ki [3] | Ki (D(2) dopamine receptor) | Activity (Rattus norvegicus) | Activity (Mus musculus)
FC(F)(F)c1cccc(N2CCN(CCCOc3ccc4[nH]cnc4c3)CC2)c1 | 389 nM | 102 nM | -6.92 | 15.1 nM |  | 
CN1CCN(C2=Nc3cc(Cl)ccc3Nc3ccccc32)CC1 [CLOZAPINE] |  |  | -7.65 |  |  | 
FC(F)(F)c1cccc(N2CCN(CCCOc3ccc4[nH]c(=S)[nH]c4c3)CC2)c1 | 100 nM | 316 nM | -6.31 | 363 nM |  | 
c1ccc(N2CCN(CCCOc3ccc4[nH]cnc4c3)CC2)cc1 | 646 nM | 13.8 nM | -7.58 | 75.9 nM | Not Active | Active

More lines, main results first:

Ki [1] | Ki [2] | Log Ki [3] | Ki (D(2) dopamine receptor) | Structure (SMILES) | Activity (Rattus norvegicus) | Activity (Mus musculus)
933 nM | 2.04 nM | -7.53 | 41.7 nM | S=c1[nH]c2ccc(OCCCN3CCN(c4ccccc4)CC3)cc2[nH]1 | Not Active | Active
15.1 nM | 79.4 nM | -8.23 | 8.71 nM | COc1ccccc1N1CCN(CCCOc2ccc3[nH]cnc3c2)CC1 |  | 
178 nM | 19.1 nM | -8.71 | 1.7 nM | COc1ccccc1N1CCN(CCCOc2ccc3[nH]c(=S)[nH]c3c2)CC1 |  | 
